Assay results as given in the supplement of paper PMC10307832.

Experiments:
Assay in all cases: relative viability (nuclei count vs DMSO), 5 days (fraction); higher = more cells survive
[1] = system: A549
Procedure, shortened: (§1)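 Relative viability equals treated-well nuclei counts divided by vehicle-well nuclei counts. Counts came from 4× images of lung cancer cell lines grown in 1536-well plates for 5 days after pin-tool dosing on the day after seeding. Dosing used one drug alone or a fixed anchor-drug dose plus five library-drug doses (not always all listed) in √10 steps, and values are medians of duplicate plates.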

[2] = system: HCC-44
Procedure, shortened: as §1

[3] = system: Calu-6
Procedure, shortened: as §1

[4] = system: NCI-H1703
Procedure, shortened: as §1

[5] = system: NCI-H1437
Procedure, shortened: as §1

[6] = system: NCI-H1299
Procedure, shortened: as §1

[7] = system: EBC-1
Procedure, shortened: as §1

[8] = system: IA-LM
Procedure, shortened: as §1

[9] = system: HCC-366
Procedure, shortened: as §1

CC1(C)CCC(c2ccc(Cl)cc2)=C(CN2CCN(c3ccc(C(=O)NS(=O)(=O)c4ccc(N[C@H](CCN5CCOCC5)CSc5ccccc5)c(S(=O)(=O)C(F)(F)F)c4)cc3)CC2)C1 [Navitoclax] + C[C@@H](Oc1cc(-c2cnn(C3CCNCC3)c2)cnc1N)c1c(Cl)ccc(F)c1Cl [Crizotinib] (partner 1 µM)
relative viability ([1]; first compound 0.005 µM): 0.756 | relative viability ([1]; first compound 0.01581 µM): 0.805 | relative viability ([1]; first compound 0.05 µM): 0.825 | relative viability ([1]; first compound 0.1581 µM): 0.729 | relative viability ([1]; first compound 0.5 µM): 0.744 | relative viability ([2]; first compound 0.005 µM): 0.815 | relative viability ([2]; first compound 0.01581 µM): 0.835 | relative viability ([2]; first compound 0.05 µM): 0.794 | relative viability ([2]; first compound 0.1581 µM): 0.825 | relative viability ([2]; first compound 0.5 µM): 0.866 | relative viability ([3]; first compound 0.005 µM): 0.843 | relative viability ([3]; first compound 0.01581 µM): 0.812 | relative viability ([3]; first compound 0.05 µM): 0.894 | relative viability ([3]; first compound 0.1581 µM): 0.741 | relative viability ([3]; first compound 0.5 µM): 0.78 | relative viability ([4]; first compound 0.005 µM): 0.73 | relative viability ([4]; first compound 0.01581 µM): 0.602 | relative viability ([4]; first compound 0.05 µM): 1.22 | relative viability ([4]; first compound 0.1581 µM): 0.726 | relative viability ([4]; first compound 0.5 µM): 0.754 | relative viability ([5]; first compound 0.005 µM): 0.916 | relative viability ([5]; first compound 0.01581 µM): 0.93 | relative viability ([5]; first compound 0.05 µM): 0.892 | relative viability ([5]; first compound 0.1581 µM): 0.961 | relative viability ([5]; first compound 0.5 µM): 0.873 | relative viability ([6]; first compound 0.005 µM): 0.99 | relative viability ([6]; first compound 0.01581 µM): 0.99 | relative viability ([6]; first compound 0.05 µM): 1.02 | relative viability ([6]; first compound 0.1581 µM): 0.926 | relative viability ([6]; first compound 0.5 µM): 0.981 | relative viability ([7]; first compound 0.005 µM): 0.178 | relative viability ([7]; first compound 0.01581 µM): 0.227 | relative viability ([7]; first compound 0.05 µM): 0.192 | relative viability ([7]; first compound 0.1581 µM): 0.195 | relative viability ([7]; first compound 0.5 µM): 0.204 | relative viability ([8]; first compound 0.005 µM): 0.861 | relative viability ([8]; first compound 0.01581 µM): 0.636 | relative viability ([8]; first compound 0.05 µM): 0.875 | relative viability ([8]; first compound 0.1581 µM): 0.944 | relative viability ([8]; first compound 0.5 µM): 0.908 | relative viability ([9]; first compound 0.005 µM): 0.456 | relative viability ([9]; first compound 0.01581 µM): 0.635 | relative viability ([9]; first compound 0.05 µM): 0.0527 | relative viability ([9]; first compound 0.1581 µM): 0.514 | relative viability ([9]; first compound 0.5 µM): 0.562

CC1(C)CCC(c2ccc(Cl)cc2)=C(CN2CCN(c3ccc(C(=O)NS(=O)(=O)c4ccc(N[C@H](CCN5CCOCC5)CSc5ccccc5)c(S(=O)(=O)C(F)(F)F)c4)cc3)CC2)C1 [Navitoclax] + C[C@]1(O)C[C@@H](c2nc(-c3ccc4ccc(-c5ccccc5)nc4c3)c3c(N)nccn32)C1 [Linsitinib] (partner 1 µM)
relative viability ([1]; first compound 0.005 µM): 0.681 | relative viability ([1]; first compound 0.01581 µM): 0.669 | relative viability ([1]; first compound 0.05 µM): 0.511 | relative viability ([1]; first compound 0.1581 µM): 0.558 | relative viability ([1]; first compound 0.5 µM): 0.591 | relative viability ([2]; first compound 0.005 µM): 0.592 | relative viability ([2]; first compound 0.01581 µM): 0.625 | relative viability ([2]; first compound 0.05 µM): 0.594 | relative viability ([2]; first compound 0.1581 µM): 0.649 | relative viability ([2]; first compound 0.5 µM): 0.646 | relative viability ([3]; first compound 0.005 µM): 0.927 | relative viability ([3]; first compound 0.01581 µM): 0.984 | relative viability ([3]; first compound 0.05 µM): 0.965 | relative viability ([3]; first compound 0.1581 µM): 0.903 | relative viability ([3]; first compound 0.5 µM): 0.918 | relative viability ([4]; first compound 0.005 µM): 0.935 | relative viability ([4]; first compound 0.01581 µM): 1 | relative viability ([4]; first compound 0.05 µM): 1.19 | relative viability ([4]; first compound 0.1581 µM): 1 | relative viability ([4]; first compound 0.5 µM): 0.813 | relative viability ([5]; first compound 0.005 µM): 0.952 | relative viability ([5]; first compound 0.01581 µM): 1.08 | relative viability ([5]; first compound 0.05 µM): 1.02 | relative viability ([5]; first compound 0.1581 µM): 1.09 | relative viability ([5]; first compound 0.5 µM): 0.95 | relative viability ([6]; first compound 0.005 µM): 0.949 | relative viability ([6]; first compound 0.01581 µM): 1 | relative viability ([6]; first compound 0.05 µM): 0.878 | relative viability ([6]; first compound 0.1581 µM): 0.981 | relative viability ([6]; first compound 0.5 µM): 0.984 | relative viability ([7]; first compound 0.005 µM): 0.893 | relative viability ([7]; first compound 0.01581 µM): 1.09 | relative viability ([7]; first compound 0.05 µM): 0.974 | relative viability ([7]; first compound 0.1581 µM): 1.05 | relative viability ([7]; first compound 0.5 µM): 0.86 | relative viability ([8]; first compound 0.005 µM): 0.551 | relative viability ([8]; first compound 0.01581 µM): 0.793 | relative viability ([8]; first compound 0.05 µM): 0.537 | relative viability ([8]; first compound 0.1581 µM): 0.587 | relative viability ([8]; first compound 0.5 µM): 0.654 | relative viability ([9]; first compound 0.005 µM): 0.672 | relative viability ([9]; first compound 0.01581 µM): 0.728 | relative viability ([9]; first compound 0.05 µM): 0.155 | relative viability ([9]; first compound 0.1581 µM): 0.615 | relative viability ([9]; first compound 0.5 µM): 0.449
